From PubChem BioAssay AID196 (DTP/NCI, 2004) come the findings set out here.

This assay has as its system BDF1 mice, intracerebral B16 melanoma, median survival T/C. Nature of the assay: NCI In Vivo Anticancer Drug Screen. Data for tumor model B16 Melanoma (intracerebral) in B6D2F1 (BDF1) mice. The following applies: endpoint: median survival time, higher = longer survival. How it is done: The antitumor activity of compounds was measured in mice bearing transplantable tumors. Survival or tumor size were measured and the results are expressed as the measurement made in the treated group (T) divided by the measurement made in the vehicle treated control group (C). The tumor model used in this assay is B16 Melanoma (intracerebral) in B6D2F1 (BDF1) mice

The mark [1] stands for this setting: dose: 128.0 mg/kg/injection, schedule: Q01DX005 (ip), vehicle: Klucel (hydroxypropylcellulose) (HPC).
The mark [2] stands for this setting: dose: 256.0 mg/kg/injection, schedule: Q01DX005 (ip), vehicle: Klucel (hydroxypropylcellulose) (HPC).
Setting [3] is: dose: 32.0 mg/kg/injection, schedule: Q01DX005 (ip), vehicle: saline with Tween-80.
Setting [4] is: dose: 64.0 mg/kg/injection, schedule: Q01DX005 (ip), vehicle: saline with Tween-80.
Setting [5] is: dose: 100.0 mg/kg/injection, schedule: Q01DX009 (ip), vehicle: saline.
Where [6] appears, read: dose: 200.0 mg/kg/injection, schedule: Q01DX009 (ip), vehicle: saline.
The mark [7] stands for this setting: dose: 0.13 mg/kg/injection, schedule: Q01DX009 (ip), vehicle: saline.
[8] abbreviates: dose: 0.5 mg/kg/injection, schedule: Q01DX009 (ip), vehicle: saline.
Where [9] appears, read: dose: 1.0 mg/kg/injection, schedule: Q01DX009 (ip), vehicle: saline.
The mark [10] stands for this setting: dose: 2.0 mg/kg/injection, schedule: Q01DX009 (ip), vehicle: saline.

Structures are written as SMILES. Where “and” joins values, the source holds several entries; their conditions need not be identical. Identical values can stand only once. Inconclusive results and toxic doses are left out.

For the molecule `Cc1ncc(CO)c(C)c1O`, the T/C is 100 % of control and 109 % of control under setting [1]; 98 % of control and 105 % of control under setting [2].

Turning to `CCCCN(C)N=Nc1ccc([N+](=O)[O-])cc1C(N)=O`, the T/C is, setting by setting: under setting [3], 121 % of control; under setting [4], 116 % of control; (dose: 256.0 mg/kg/injection, schedule: Q01DX005 (ip), vehicle: saline with Tween-80) 154 % of control; (dose: 512.0 mg/kg/injection, schedule: Q01DX005 (ip), vehicle: saline with Tween-80) 152 % of control.

In the case of `O=C1C(=O)c2ccccc2C(O)=C1CC=C(Cl)Cl`, the T/C runs as follows: (dose: 10.0 mg/kg/injection, schedule: Q01DX005 (ip), vehicle: Klucel (hydroxypropylcellulose) (HPC)) 101 % of control; (dose: 20.0 mg/kg/injection, schedule: Q01DX005 (ip), vehicle: Klucel (hydroxypropylcellulose) (HPC)) 98 % of control; (dose: 40.0 mg/kg/injection, schedule: Q01DX005 (ip), vehicle: Klucel (hydroxypropylcellulose) (HPC)) 106 % of control.

For `Cc1cn(C2CC(O)C(CO)O2)c(=O)[nH]c1=O` (stereo not drawn), the T/C runs as follows: (dose: 100.0 mg/kg/injection, schedule: Q01DX009 (ip), vehicle: saline with Tween-80) 102 % of control and 109 % of control; under setting [5], 100 % of control and 111 % of control; (dose: 200.0 mg/kg/injection, schedule: Q01DX009 (ip), vehicle: saline with Tween-80) 105 % of control; under setting [6], 103 % of control and 110 % of control; (dose: 400.0 mg/kg/injection, schedule: Q01DX009 (ip), vehicle: saline with Tween-80) 105 % of control; (dose: 400.0 mg/kg/injection, schedule: Q01DX009 (ip), vehicle: saline) 94 % of control and 101 % of control. For the same molecule, the T/C is, setting by setting: (dose: 800.0 mg/kg/injection, schedule: Q01DX009 (ip), vehicle: saline with Tween-80) 124 % of control and 95 % of control; (dose: 800.0 mg/kg/injection, schedule: Q01DX009 (ip), vehicle: saline) 100 % of control and 107 % of control; (dose: 1600.0 mg/kg/injection, schedule: Q01DX009 (ip), vehicle: saline with Tween-80) 92 % of control and 94 % of control.

In the case of `CC(=O)OC1COC(NC(=O)N(CCCl)N=O)C(OC(C)=O)C1OC(C)=O` (stereo not drawn), the T/C is, setting by setting: (dose: 0.18 mg/kg/injection, schedule: Q01DX009 (ip), vehicle: saline) 104 % of control; (dose: 0.37 mg/kg/injection, schedule: Q01DX009 (ip), vehicle: saline) 104 % of control; (dose: 0.75 mg/kg/injection, schedule: Q01DX009 (ip), vehicle: saline) 113 % of control; (dose: 1.5 mg/kg/injection, schedule: Q01DX009 (ip), vehicle: saline) 113 % of control.

Regarding `CC(C)=CCC1=C(O)c2ccccc2C(=O)C1=O`, the T/C is, setting by setting: (dose: 32.0 mg/kg/injection, schedule: Q01DX005 (ip), vehicle: Klucel (hydroxypropylcellulose) (HPC)) 98 % of control; (dose: 64.0 mg/kg/injection, schedule: Q01DX005 (ip), vehicle: Klucel (hydroxypropylcellulose) (HPC)) 90 % of control and 96 % of control; under setting [1], 87 % of control and 105 % of control; under setting [2], 90 % of control and 96 % of control.

Take `COc1cccc2c1C(=O)c1c(O)c3c(c(O)c1C2=O)C[C@@](O)(C(=O)CO)C[C@@H]3OC1CC(N)C(O)C(C)O1` (stereo partly drawn): the T/C by setting is: under setting [7], 91 % of control; (dose: 0.25 mg/kg/injection, schedule: Q01DX009 (ip), vehicle: saline) 108 % of control; (dose: 0.25 mg/kg/injection, schedule: Q03HX008 (ip), vehicle: saline) 100 % of control; under setting [8], 112 % of control; (dose: 0.5 mg/kg/injection, schedule: Q03HX008 (ip), vehicle: saline) 100 % of control; under setting [9], 104 % of control. The T/C is, setting by setting: (dose: 1.0 mg/kg/injection, schedule: Q03HX008 (ip), vehicle: saline) 107 % of control; under setting [10], 108 % of control; (dose: 2.0 mg/kg/injection, schedule: Q03HX008 (ip), vehicle: saline) 96 % of control; (dose: 4.0 mg/kg/injection, schedule: Q01DX009 (ip), vehicle: saline) 116 % of control.

Regarding `CC/C(=C(/CC)c1ccc(O)cc1)c1ccc(O)cc1`, the T/C was 106 % of control (dose: 8.0 mg/kg/injection, schedule: Q01DX009 (ip), vehicle: Klucel (hydroxypropylcellulose) (HPC)); 100 % of control (dose: 16.0 mg/kg/injection, schedule: Q01DX005 (ip), vehicle: saline with Tween-80); 102 % of control (dose: 16.0 mg/kg/injection, schedule: Q01DX009 (ip), vehicle: Klucel (hydroxypropylcellulose) (HPC)); 99 % of control and 111 % of control under setting [3]; 95 % of control (dose: 32.0 mg/kg/injection, schedule: Q01DX009 (ip), vehicle: Klucel (hydroxypropylcellulose) (HPC)); 96 % of control and 103 % of control under setting [4]. For the same molecule, the T/C runs as follows: (dose: 64.0 mg/kg/injection, schedule: Q01DX009 (ip), vehicle: Klucel (hydroxypropylcellulose) (HPC)) 106 % of control; (dose: 128.0 mg/kg/injection, schedule: Q01DX005 (ip), vehicle: saline with Tween-80) 88 % of control and 102 % of control; (dose: 128.0 mg/kg/injection, schedule: Q01DX009 (ip), vehicle: Klucel (hydroxypropylcellulose) (HPC)) 104 % of control; (dose: 256.0 mg/kg/injection, schedule: Q01DX009 (ip), vehicle: Klucel (hydroxypropylcellulose) (HPC)) 111 % of control.

`CC[C@]1(O)C[C@H]2CN(CCc3c([nH]c4ccccc34)[C@@](C(=O)OC)(c3cc4c(cc3OC)N(C=O)[C@H]3[C@@](O)(C(=O)OC)[C@H](OC(C)=O)[C@]5(CC)C=CCN6CC[C@]43[C@@H]65)C2)C1`: the T/C is, setting by setting: (dose: 0.02 mg/kg/injection, schedule: Q01DX009 (ip), vehicle: saline) 96 % of control; (dose: 0.03 mg/kg/injection, schedule: Q01DX009 (ip), vehicle: saline) 96 % of control; (dose: 0.06 mg/kg/injection, schedule: Q01DX009 (ip), vehicle: saline) 92 % of control and 95 % of control; under setting [7], 117 % of control and 108 % of control; (dose: 0.26 mg/kg/injection, schedule: Q01DX009 (ip), vehicle: saline) 100 % of control.

`O=C(O)CC(NC(=O)CP(=O)(O)O)C(=O)O` (stereo not drawn): the T/C reads like this: (dose: 32.0 mg/kg/injection, schedule: Q04DX003 (ip), vehicle: saline) 101 % of control; (dose: 64.0 mg/kg/injection, schedule: Q04DX003 (ip), vehicle: saline) 96 % of control; (dose: 128.0 mg/kg/injection, schedule: Q04DX003 (ip), vehicle: saline) 90 % of control; (dose: 256.0 mg/kg/injection, schedule: Q04DX003 (ip), vehicle: saline) 101 % of control; (dose: 512.0 mg/kg/injection, schedule: Q04DX003 (ip), vehicle: saline) 104 % of control; (dose: 1024.0 mg/kg/injection, schedule: Q04DX003 (ip), vehicle: saline) 110 % of control.

On to `O=C1c2c(O)ccc(O)c2C(=O)c2c(NCCNCCO)ccc(NCCNCCO)c21`, for which the T/C under setting [8] is 90 % of control, the T/C under setting [9] was 96 % of control and the T/C under setting [10] was 102 % of control.

Consider `CNNCc1ccc(C(=O)NC(C)C)cc1`, for which the T/C was 120 % of control (dose: 25.0 mg/kg/injection, schedule: Q01DX009 (ip), vehicle: saline); 154 % of control (dose: 75.0 mg/kg/injection, schedule: Q01DX009 (ip), vehicle: water); 163 % of control under setting [5]; 163 % of control (dose: 150.0 mg/kg/injection, schedule: Q01DX009 (ip), vehicle: water); 168 % of control and 170 % of control under setting [6]; 100 % of control (dose: 300.0 mg/kg/injection, schedule: Q01DX009 (ip), vehicle: water).

Take `COc1ccc2c(c1O)-c1cccc3c1[C@@H](C2)N(CCCl)CC3`: the T/C runs as follows: (dose: 8.0 mg/kg/injection, schedule: Q01DX005 (ip), vehicle: saline) 94 % of control; (dose: 16.0 mg/kg/injection, schedule: Q01DX005 (ip), vehicle: saline) 88 % of control.

In the case of `CN(C)N=Nc1ccnc2ccc(Br)cc12`, the T/C (dose: 3.12 mg/kg/injection, schedule: Q01DX009 (ip), vehicle: other) was 102 % of control; the T/C (dose: 6.25 mg/kg/injection, schedule: Q01DX009 (ip), vehicle: other) was 102 % of control; the T/C (dose: 12.5 mg/kg/injection, schedule: Q01DX009 (ip), vehicle: other) is 97 % of control; the T/C (dose: 25.0 mg/kg/injection, schedule: Q01DX009 (ip), vehicle: other) is 107 % of control; the T/C (dose: 50.0 mg/kg/injection, schedule: Q01DX009 (ip), vehicle: other) was 102 % of control.
